Results published in patent US9808003B2, “Herbicidally active 2-(substituted-phenyl)-cyclopentane-1,3-dione compounds and derivatives thereof” (Syngenta Limited, priority 2013, dated 2017).

Key:
Assay type in all cases: in vivo
Settings in all cases: 14 DAA
[1] = tested on: Avena fatua (AVEFA); assay: Test 1B glasshouse assay, post-emergence herbicidal activity against grassy weeds
Procedure: (§1) Biological Example 1B tests the herbicidal activity of“technical” compounds (i.e. compounds not previously formulated before the test), as the herbicides under test.
(§2) An “instant formulation”, known as the “IF50”, containing 50 g/liter (i.e. 5% w/v) of the “technical” (i.e. unformulated) active ingredient (i.e. the herbicide under test), is prepared by dissolving the active ingredient in a mixture of organic solvents and emulsifier, details of which are provided in the Table below.
(§3) This IF50 is mixed with a small, variable amount of acetone to aid dissolution, before addition of a 0.5% v/v aqueous solution of the adjuvant Adigor™ (an adjuvant containing rapeseed oil methyl ester, ethoxylated alcohols, and a mixture of heavy aromatic hydrocarbons, e.g. available from Syngenta), as the aqueous diluent, to form an aqueous spray solution which contains a predetermined concentration of the active ingredient (which varies depending on the application rate of the active ingredient to the plants) and 0.5% v/v of the adjuvant Adigor™. This aqueous spray solution is suitable for spraying onto plants.
(§4) Seeds of a variety of test species are sown in standard soil in pots. After cultivation for 14 days under controlled conditions in a glasshouse (at 22/16° C., day/night; 16 hours light; 65% humidity), the plants are sprayed post-emergence with the above-mentioned aqueous spray solution containing inter alia the “technical” active ingredient (i.e. the herbicide under test) and the adjuvant Adigor™.
(§5) The test plants are then grown on under controlled conditions in the glasshouse (at 22/16° C., day/night; 16 hours light; 65% humidity) and are watered twice daily. 14 days after application of the test herbicide, the test is evaluated visually for percentage phytotoxicity to the plant (where 100%=total damage to plant; 0%=no damage to plant).
(§6) More specifically, post-emergence herbicidal activity (phytotoxicity) data, on certain tested grassy monocotyledonous weeds (and/or plants of the type Gramineae) and cereal crops in the glasshouse, are measured 14 days after application of the herbicide (14 DAA), typically for inter alia one or more of the following application rates: • (a) a post-emergence application rate of 60 g/ha of the test herbicide with or without 50 g/ha of cloquintocet-mexyl safener, and • (b) a post-emergence application rate of 90 g/ha of the test herbicide with 50 g/ha of cloquintocet-mexyl safener, and • (c) a post-emergence application rate of 120 g/ha of the test herbicide with 50 g/ha of cloquintocet-mexyl safener.
(§7) The cloquintocet-mexyl, when used, is present in the formulation containing the herbicide under test dissolved in acetone plus IF50.
(§8) The range of herbicide application rates tested sometimes includes application rates other than those shown above, and the rates can vary depending on the herbicide under test.
(§9) Herbicidal activity (phytotoxicity) is evaluated visually, and an assessed percentage phytotoxicity score is given for each herbicidal application on each plant species (with 100%=total damage to plant; 0%=no damage to plant; the assessment is recorded in increments of 1%). Two replicates are made for each experiment, and the mean herbicidal activity (phytotoxicity) data is reported.
(§10) For compounds A34, A98, A99, A87, A100, A101, A89, A120, A120A, A120B, A23, A127, A128, A89, A112 and A113 the tested weeds were as follows: Avena fatua (AVEFA), Lolium multiflorum (LOLMU), Setaria viridis (SETVI), Poa annua (POAAN), Alopecurus myosuroides (ALOMY). All five of these are grassy monocotyledonous weeds. Except for SETVI, these are all “cool-season” grassy monocotyledonous weeds.

[2] = tested on: Lolium multiflorum (LOLMU); assay: as above
Procedure: as §1, §2, §3, §4, §5, §6, §7, §8, §9, §10

[3] = tested on: Setaria viridis (SETVI); assay: as above
Procedure: as §1, §2, §3, §4, §5, §6, §7, §8, §9, §10

[4] = tested on: Alopecurus myosuroides (ALOMY); assay: as above
Procedure: as §1, §2, §3, §4, §5, §6, §7, §8, §9, §10

[5] = tested on: Poa annua (POAAN); assay: as above
Procedure: as §1, §2, §3, §4, §5, §6, §7, §8, §9, §10

[6] = tested on: Winter Barley “Suzuka”; assay: Test 1B glasshouse assay, post-emergence herbicidal activity against cereal crops
Procedure: as §1, §2, §3, §4, §5, §6, §7, §8, §9

[7] = tested on: Spring Barley “Harrington”; assay: as above
Procedure: as §1, §2, §3, §4, §5, §6, §7, §8, §9

[8] = tested on: Winter Wheat “Hereward”; assay: as above
Procedure: as §1, §2, §3, §4, §5, §6, §7, §8, §9

[9] = tested on: Spring Wheat “Teal”; assay: as above
Procedure: as §1, §2, §3, §4, §5, §6, §7, §8, §9

[10] = 60 g/ha herbicide, 0 g/ha cloquintocet-mexyl, test result no. 1 (T1)
[11] = 60 g/ha herbicide, 50 g/ha cloquintocet-mexyl, test result no. 1 (T1)
[12] = 60 g/ha herbicide, 50 g/ha cloquintocet-mexyl, test result no. 2 (T2)
[13] = 90 g/ha herbicide, 50 g/ha cloquintocet-mexyl, test result no. 2 (T2)
[14] = 120 g/ha herbicide, 50 g/ha cloquintocet-mexyl, test result no. 2 (T2)
[15] = 30 g/ha herbicide, 50 g/ha cloquintocet-mexyl
[16] = 45 g/ha herbicide, 50 g/ha cloquintocet-mexyl
[17] = 60 g/ha herbicide, 0 g/ha cloquintocet-mexyl
[18] = 60 g/ha herbicide, 50 g/ha cloquintocet-mexyl

## Cc1cc(-n2cc(Cl)cn2)cc(C)c1C1C(=O)C[C@H](CCNC(=O)c2ccccn2)C1=O (stereo partly drawn) [Compound A99]
[1]; [10]
  Post-emergence herbicidal activity, percentage phytotoxicity, AVEFA: 50 (T1) %
[1]; [11]
  Post-emergence herbicidal activity, percentage phytotoxicity, AVEFA: 40 (T1); %
[1]; [12]
  Post-emergence herbicidal activity, percentage phytotoxicity, AVEFA: 48 (T2) %
[1]; [13]
  Post-emergence herbicidal activity, percentage phytotoxicity, AVEFA: 60 (T2) %
[1]; [14]
  Post-emergence herbicidal activity, percentage phytotoxicity, AVEFA: 78 (T2) %
[2]; [10]
  Post-emergence herbicidal activity, percentage phytotoxicity, LOLMU: 35 (T1) %
[2]; [11]
  Post-emergence herbicidal activity, percentage phytotoxicity, LOLMU: 35 (T1); %
[2]; [12]
  Post-emergence herbicidal activity, percentage phytotoxicity, LOLMU: 55 (T2) %
[2]; [13]
  Post-emergence herbicidal activity, percentage phytotoxicity, LOLMU: 65 (T2) %
[2]; [14]
  Post-emergence herbicidal activity, percentage phytotoxicity, LOLMU: 78 (T2) %
[3]; [10]
  Post-emergence herbicidal activity, percentage phytotoxicity, SETVI: 10 (T1) %
[3]; [11]
  Post-emergence herbicidal activity, percentage phytotoxicity, SETVI: 8 (T1); %
[3]; [12]
  Post-emergence herbicidal activity, percentage phytotoxicity, SETVI: 33 (T2) %
[3]; [13]
  Post-emergence herbicidal activity, percentage phytotoxicity, SETVI: 68 (T2) %
[3]; [14]
  Post-emergence herbicidal activity, percentage phytotoxicity, SETVI: 75 (T2) %
[4]; [10]
  Post-emergence herbicidal activity, percentage phytotoxicity, ALOMY: 50 (T1) %
[4]; [11]
  Post-emergence herbicidal activity, percentage phytotoxicity, ALOMY: 35 (T1); %
[4]; [12]
  Post-emergence herbicidal activity, percentage phytotoxicity, ALOMY: 38 (T2) %
[4]; [13]
  Post-emergence herbicidal activity, percentage phytotoxicity, ALOMY: 58 (T2) %
[4]; [14]
  Post-emergence herbicidal activity, percentage phytotoxicity, ALOMY: 73 (T2) %
[5]; [10]
  Post-emergence herbicidal activity, percentage phytotoxicity, POAAN: 70 (T1) %
[5]; [11]
  Post-emergence herbicidal activity, percentage phytotoxicity, POAAN: 73 (T1); %
[5]; [12]
  Post-emergence herbicidal activity, percentage phytotoxicity, POAAN: 70 (T2) %
[5]; [13]
  Post-emergence herbicidal activity, percentage phytotoxicity, POAAN: 73 (T2) %
[5]; [14]
  Post-emergence herbicidal activity, percentage phytotoxicity, POAAN: 75 (T2) %
[6]; [10]
  Post-emergence herbicidal activity against cereal crops, percentage phytotoxicity, Winter Barley “Suzuka”: 60 (T1) %
[6]; [11]
  Post-emergence herbicidal activity against cereal crops, percentage phytotoxicity, Winter Barley “Suzuka”: 15 (T1); %
[6]; [12]
  Post-emergence herbicidal activity against cereal crops, percentage phytotoxicity, Winter Barley “Suzuka”: 14 (T2) %
[6]; [13]
  Post-emergence herbicidal activity against cereal crops, percentage phytotoxicity, Winter Barley “Suzuka”: 35 (T2) %
[6]; [14]
  Post-emergence herbicidal activity against cereal crops, percentage phytotoxicity, Winter Barley “Suzuka”: 38 (T2) %
[7]; [10]
  Post-emergence herbicidal activity against cereal crops, percentage phytotoxicity, Spring Barley “Harrington”: 15 (T1) %
[7]; [11]
  Post-emergence herbicidal activity against cereal crops, percentage phytotoxicity, Spring Barley “Harrington”: 3 (T1); %
[7]; [12]
  Post-emergence herbicidal activity against cereal crops, percentage phytotoxicity, Spring Barley “Harrington”: 3 (T2) %
[7]; [13]
  Post-emergence herbicidal activity against cereal crops, percentage phytotoxicity, Spring Barley “Harrington”: 5 (T2) %
[7]; [14]
  Post-emergence herbicidal activity against cereal crops, percentage phytotoxicity, Spring Barley “Harrington”: 8 (T2) %
[8]; [10]
  Post-emergence herbicidal activity against cereal crops, percentage phytotoxicity, Winter Wheat “Hereward”: 0 (T1) %
[8]; [11]
  Post-emergence herbicidal activity against cereal crops, percentage phytotoxicity, Winter Wheat “Hereward”: 1 (T1); %
[8]; [12]
  Post-emergence herbicidal activity against cereal crops, percentage phytotoxicity, Winter Wheat “Hereward”: 0 (T2) %
[8]; [13]
  Post-emergence herbicidal activity against cereal crops, percentage phytotoxicity, Winter Wheat “Hereward”: 0 (T2) %
[8]; [14]
  Post-emergence herbicidal activity against cereal crops, percentage phytotoxicity, Winter Wheat “Hereward”: 8 (T2) %
[9]; [10]
  Post-emergence herbicidal activity against cereal crops, percentage phytotoxicity, Spring Wheat “Teal”: 2 (T1) %
[9]; [11]
  Post-emergence herbicidal activity against cereal crops, percentage phytotoxicity, Spring Wheat “Teal”: 1 (T1); %
[9]; [12]
  Post-emergence herbicidal activity against cereal crops, percentage phytotoxicity, Spring Wheat “Teal”: 5 (T2) %
[9]; [13]
  Post-emergence herbicidal activity against cereal crops, percentage phytotoxicity, Spring Wheat “Teal”: 5 (T2) %
[9]; [14]
  Post-emergence herbicidal activity against cereal crops, percentage phytotoxicity, Spring Wheat “Teal”: 8 (T2) %

## CCc1cc(-n2cc(Cl)cn2)cc(C)c1C1C(=O)C[C@H](CCNC(=O)c2ccccn2)C1=O (stereo partly drawn) [Compound A101]
[1]; [15]
  Post-emergence herbicidal activity, percentage phytotoxicity, AVEFA: 73%
[1]; [16]
  Post-emergence herbicidal activity, percentage phytotoxicity, AVEFA: 88%
[1]; [17]
  Post-emergence herbicidal activity, percentage phytotoxicity, AVEFA: 90%
[1]; [18]
  Post-emergence herbicidal activity, percentage phytotoxicity, AVEFA: 88%
[2]; [15]
  Post-emergence herbicidal activity, percentage phytotoxicity, LOLMU: 68%
[2]; [16]
  Post-emergence herbicidal activity, percentage phytotoxicity, LOLMU: 83%
[2]; [17]
  Post-emergence herbicidal activity, percentage phytotoxicity, LOLMU: 88%
[2]; [18]
  Post-emergence herbicidal activity, percentage phytotoxicity, LOLMU: 83%
[3]; [15]
  Post-emergence herbicidal activity, percentage phytotoxicity, SETVI: 15%
[3]; [16]
  Post-emergence herbicidal activity, percentage phytotoxicity, SETVI: 35%
[3]; [17]
  Post-emergence herbicidal activity, percentage phytotoxicity, SETVI: 53%
[3]; [18]
  Post-emergence herbicidal activity, percentage phytotoxicity, SETVI: 53%
[4]; [15]
  Post-emergence herbicidal activity, percentage phytotoxicity, ALOMY: 25%
[4]; [16]
  Post-emergence herbicidal activity, percentage phytotoxicity, ALOMY: 43%
[4]; [17]
  Post-emergence herbicidal activity, percentage phytotoxicity, ALOMY: 55%
[4]; [18]
  Post-emergence herbicidal activity, percentage phytotoxicity, ALOMY: 55%
[5]; [15]
  Post-emergence herbicidal activity, percentage phytotoxicity, POAAN: 5%
[5]; [16]
  Post-emergence herbicidal activity, percentage phytotoxicity, POAAN: 15%
[5]; [17]
  Post-emergence herbicidal activity, percentage phytotoxicity, POAAN: 48%
[5]; [18]
  Post-emergence herbicidal activity, percentage phytotoxicity, POAAN: 38%
[6]; [15]
  Post-emergence herbicidal activity against cereal crops, percentage phytotoxicity, Winter Barley “Suzuka”: 23%
[6]; [16]
  Post-emergence herbicidal activity against cereal crops, percentage phytotoxicity, Winter Barley “Suzuka”: 23%
[6]; [17]
  Post-emergence herbicidal activity against cereal crops, percentage phytotoxicity, Winter Barley “Suzuka”: 75%
[6]; [18]
  Post-emergence herbicidal activity against cereal crops, percentage phytotoxicity, Winter Barley “Suzuka”: 40%
[7]; [15]
  Post-emergence herbicidal activity against cereal crops, percentage phytotoxicity, Spring Barley “Harrington”: 18%
[7]; [16]
  Post-emergence herbicidal activity against cereal crops, percentage phytotoxicity, Spring Barley “Harrington”: 18%
[7]; [17]
  Post-emergence herbicidal activity against cereal crops, percentage phytotoxicity, Spring Barley “Harrington”: 48%
[7]; [18]
  Post-emergence herbicidal activity against cereal crops, percentage phytotoxicity, Spring Barley “Harrington”: 23%
[8]; [15]
  Post-emergence herbicidal activity against cereal crops, percentage phytotoxicity, Winter Wheat “Hereward”: 18%
[8]; [16]
  Post-emergence herbicidal activity against cereal crops, percentage phytotoxicity, Winter Wheat “Hereward”: 23%
[8]; [17]
  Post-emergence herbicidal activity against cereal crops, percentage phytotoxicity, Winter Wheat “Hereward”: 43%
[8]; [18]
  Post-emergence herbicidal activity against cereal crops, percentage phytotoxicity, Winter Wheat “Hereward”: 38%
[9]; [15]
  Post-emergence herbicidal activity against cereal crops, percentage phytotoxicity, Spring Wheat “Teal”: 10%
[9]; [16]
  Post-emergence herbicidal activity against cereal crops, percentage phytotoxicity, Spring Wheat “Teal”: 13%
[9]; [17]
  Post-emergence herbicidal activity against cereal crops, percentage phytotoxicity, Spring Wheat “Teal”: 48%
[9]; [18]
  Post-emergence herbicidal activity against cereal crops, percentage phytotoxicity, Spring Wheat “Teal”: 18%
